Reference: patent US12421216B2, “Voruciclib polymorphs and methods of making and using thereof” (MEI PHARMA, INC., priority 2019, dated 2025)
“Also recorded” adds a separate entry of the source.

Key:
Format in all cases: physicochemical
[1] = Dynamic Vapor Sorption (DVS) hygroscopicity
Experimental: (§1) Differences in hygroscopicity (moisture uptake) of the various forms of a solid material provided a measure of their relative stability at increasing relative humidity. Moisture sorption isotherms of small samples were obtained using a DVS-1 system from Surface Measurement Systems (London, UK); this instrument is suitable for use with a few milligrams of sample, with an accuracy of 0.1 μg. The relative humidity was varied during sorption-desorption-sorption (45-95-0-45% RH) at a constant temperature of 25° C. Weight equilibration per step was set at dm/dt <0.0002 for a minimum of 1 hour or maximum of 6 hours. Afterwards the sample was measured by HT-XRPD.
The hygroscopicity was classified according to the European Pharmacopoeia Hygroscopicity classification.
as §1, with “(40-95-0-40%” for “(45-95-0-45%”
as §1, with “use with as little as a few” for “use with a few”
The hygroscopicity of Mao1 was determined by DVS. The powder was exposed to a RH profile consisting of sorption/desorption/sorption cycles (40-95-0-40% RH) performed at 25° C. The water vapor uptake gained during the sorption half-cycle was 0.75%.

[2] = Physical stability upon exposure to accelerated aging conditions (AAC, 40° C./75% RH), re-analysis by HT-XRPD
[3] = Qualitative solubility determination in water at room temperature, with observation of gel formation
Experimental: The aqueous solubility of Oxa2 (starting material) was assessed by the qualitative solubility determination approach. To 5.4 mg of Oxa2, water was added in steps of 50 μl until the material was dissolved (Exp. ID: SAS1). Visual inspection by the naked eye was used to decide whether complete dissolution occurred.
After the addition of 7.5 ml water, Oxa2 was not dissolved in water at room temperature. The suspension was heated to 50° C. upon which complete dissolution occurred, as indicated by a clear solution.
The aqueous solubility of Pho1 (Exp. ID: TCP23) was assessed by the qualitative solubility determination approach. To 5.6 mg of Pho1, water was added in steps of 50 μl until the material was dissolved (Exp. ID: SAS2). Visual inspection by the naked eye was used to decide whether complete dissolution occurred. After the addition of 700 μl water, Pho1 was not dissolved in water at room temperature whereas after a subsequent addition of 200 μl water (900 μl in total), the material completely dissolved.
The solubility of Mao1 in water was determined by adding small aliquots of water to the material until it was dissolved.

[4] = Physical stability of solid forms upon drying under vacuum, HT-XRPD
Experimental: (§2) Amorphous voruciclib oxalate salt, generated by freeze-drying, was used to start the thermocycling experiments. Suspensions were prepared in the selected solvent systems at RT. Subsequently, the mixtures were subjected to a temperature profile. After the temperature profile, the solids were separated from the solutions by centrifugation and were dried at ambient conditions and under deep vacuum before being harvested and analyzed by HT-XRPD. The liquid phases were also dried under deep vacuum before being harvested and analyzed by HT-XRPD. All solids were exposed to AAC (40° C./75% RH, 2 days).
(§3) After the temperature profile, the solids were separated from the liquids by centrifugation and the solid phase was dried at ambient conditions and under deep vacuum (5 mbar) before being harvested and analyzed by HT-XRPD. The liquid phases were dried under deep vacuum (5 mbar) and the recovered solids were analyzed by HT-XRPD. All solids were then exposed to accelerated aging conditions (40° C./75% RH, 2 days) followed by HT-XRPD re-analysis.
as §2, with “voruciclib phosphate” for “voruciclib oxalate”, “profile. Upon completion of” for “profile. After”, “dried under” for “dried at”
as §3, with “dried under” for “dried at”, “(5 mbar, 18 h)” for “(5 mbar)”
Amorphous voruciclib malonate salt, generated by freeze-drying, was used to start the thermocycling experiments. Suspensions were prepared in the selected solvent systems at RT and were subjected to three thermocycles between 50 and 5° C., followed by aging at 25° C. for 3 days. Upon completion of the aging time, the solids were separated from the liquids by centrifugation and they were dried at ambient conditions and under deep vacuum (5 mbar) before being harvested and analyzed by HT-XRPD.
After the temperature profile the solids were separated from the solution by centrifugation and they were dried at ambient conditions and under deep vacuum before being harvested and analyzed by HT-XRPD.

CN1CC[C@@H](c2c(O)cc(O)c3c(=O)cc(-c4ccc(C(F)(F)F)cc4Cl)oc23)[C@@H]1CO.O=C(O)C(=O)O [Oxa2]
Water uptake ([1]; DVS, 25° C./80% RH): approximately 2.4% | Hygroscopicity classification ([1]; European Pharmacopoeia classification, water uptake at 25° C./80% RH): moderately hygroscopic | Solid form recovered after DVS analysis ([1]; XRPD after sorption-desorption-sorption cycle): Oxa2 was recovered | Physical stability upon exposure to AAC ([2]; 40° C./75% RH, 2 days, HT-XRPD before and after): stable when exposed to advanced aging conditions; also recorded: physically stable upon exposure to AAC | Solid forms Ambient AAC ([2]; oxalate salt thermocycling, ambient-dried solids after AAC (40° C./75% RH, 2 days), HT-XRPD): Oxa2 | Solid forms ML AAC ([2]; oxalate salt thermocycling, solids from evaporated mother liquor after AAC (40° C./75% RH, 2 days), HT-XRPD): Oxa2 | Solid forms Vacuum AAC ([2]; oxalate salt thermocycling, vacuum-dried solids after AAC (40° C./75% RH, 2 days), HT-XRPD): Oxa2 | Solubility classification in water ([3]; USP classification, room temperature): practically insoluble (solubility <0.1 mg/mL) | Solubility in water at room temperature ([3]; qualitative determination by adding aliquots of water, visual): < 100 µg/mL | Behaviour upon addition of water (gel formation) ([3]; small amount of water added to solid): No indication of gel-formation was observed | Solid forms Vacuum ([4]; oxalate salt thermocycling solids, form after drying under deep vacuum (5 mbar, 18 h), HT-XRPD, label = ambient-dried form): Oxa2 | Physical stability upon drying under deep/high vacuum ([4]; oxalate, phosphate, malonate forms, 5 mbar, 18 h): stable under vacuum conditions; also recorded: physically stable
